Experimental data published in patent US5349063A, “Pancreatic imaging agents” (priority 1993, dated 1994).

What was measured:
[1] = Pancreas uptake and pancreas to liver ratio in Balb/c mice (radioiodine biodistribution); assay type: in vivo; conditions: for P/L (percent dose in pancreas / percent dose in liver) / Pancreas uptake (mean percent administered dose per organ): I-125 label, 20 μg i.v., male Balb/c mice, mean ± standard deviation; for pancreas/liver ratios compared with HIPDM: all time periods from 30 minutes to 24 hours
Description: The pancreatic uptake and pancreas/liver ratio of I-125 ERC 9 (prepared as in Examples 1 and 2) and I-125-HIPDM were compared in mice. Male Balb/c mice were injected via the tail vein with I-125 ERC 9 or I-125 HIPDM (20 μg, 0.01 MBq, in 0.1 ml). At specific time periods from 5 minutes to 24 hours after administration, six mice from each group were killed by CO2 asphyxiation. Blood samples were taken and various organs (including the pancreas and liver) were removed. The radioiodine uptake in various organs was determined by counting in a gamma spectrometric detector. The amount of radioactivity in each organ or tissue was compared to that in a standard of the injected dose. The percent uptake was calculated for each organ of each animal. The pancreas to liver ratio was calculated by dividing the percent uptake in the pancreas by the percent uptake in the liver. The mean uptake in the organs and the mean pancreas/liver ratio was calculated for the animals at each time period.
The pancreatic uptake and pancreas/liver ratios of I-125 ERC 46 and I-125 HIPDM were compared in Balb/c mice as described in Example 6.
The pancreas uptake and pancreas/liver ratios of I-125 ERC 90 and I-125 HIPDM were compared in Balb/c mice as described in Example 6.
The pancreas uptakes and pancreas/liver ratios of I-125 ERC 94 and I-125 HIPDM were compared in Balb/c mice as described in Example 6.

[2] = rats and mice; Yamamoto et al.; cited from earlier work
[3] = cited from earlier work
[4] = cited from earlier work; remark: listed apart in the source
[5] = Pancreatic imaging in human volunteers (planar and SPECT gamma camera); assay type: in vivo
Description: Imaging studies have been done in two human volunteers using I-123 ERC 9.
I-123 ERC 9 (185 MBq, 2 mg), prepared as in Example 2, was injected intravenously into the two volunteers. Using a gamma camera with SPECT (Single Photon Emission Computed Tomography) capability, planar images were obtained at 30 minutes, 1.5 hours, 3 hours and 24 hours after injection. SPECT images were obtained at 3-4 hours after injection.

[6] = Human radiation dosimetry of I-123 ERC 9 estimated from tissue distribution in mice (MIRD); design: species or system human (from Balb/c mouse data); conditions: MIRD calculation from mouse tissue distribution
Description: The human radiation dose from I-123 ERC 9 was estimated from tissue distribution data in mice.
Male Balb/c mice were injected via the tail vein with I-125 ERC 9 (20 μg, 0.01 MBq, in 0.1 ml). At specific time periods from 5 minutes to 24 hours after administration, six mice were killed by CO2 asphyxiation. Blood samples were taken and various organs were removed. The radioiodine uptake in various organs and tissues was determined by counting in a gamma spectrometric detector. The amount of radioactivity in each organ or tissue was compared to that in a standard of the injected dose. The percent uptake was calculated for each organ of each animal. The mean percent uptake in the organs was calculated for the animals at each time period.
The mean uptakes for each of the organs and tissues were plotted versus time on semilogarithmic paper. From these plots, the uptake and clearance half times for each of the organs and tissues were calculated.
Using these values and the MIRD (Society of Nuclear Medicine) method of dosimetry calculations, the human radiation doses from I-123 were calculated.

Toxicity in mice = assay type: in vivo, Balb/c mice
Description: It was assumed that the maximum human dose of ERC 9 would be 2 mg per 50 kg (or […]) body weight. Mouse studies were done at a rate of 500 times the maximum human dose on a weight basis. Five Balb/c male and five Balb/c female mice were injected via the tail vein with 0,005 ml per gram body weight of a solution of ERC 9 in water (4 mg per ml) on each of three occasions one day apart. The animals were maintained for 30 days.

[7] = 4 and 24 hours after administration
[8] = 30 minutes after administration
[9] = human clinical studies, Yamamoto et al.
[10] = I-123 ERC 9, 185 MBq, 2 mg i.v.
[11] = planar and SPECT images, 3-4 hours
[12] = 500 times maximum human dose, i.v., three occasions one day apart, maintained 30 days

Cc1cc([125I])cc(CN(C)CCCN2CCCCC2)c1O [ERC 90, N[3(1-piperidino)propyl]-N-methyl-2-hydroxy-3-methyl-5-iodobenzylamine]
pancreas uptake compared with HIPDM [1, 7]: higher pancreas uptakes than did HIPDM | P/L (percent dose in pancreas / percent dose in liver) ([1]; 5 minutes after administration): 0.22 ± 0.04 | Pancreas uptake (mean percent administered dose per organ) ([1]; 5 minutes after administration): 1.32 ± 0.34 percent administered dose per | P/L (percent dose in pancreas / percent dose in liver) [1, 8]: 0.50 ± 0.11 | Pancreas uptake (mean percent administered dose per organ) [1, 8]: 2.73 ± 0.59 percent administered dose per | P/L (percent dose in pancreas / percent dose in liver) ([1]; 1 hour after administration): 0.80 ± 0.18 | Pancreas uptake (mean percent administered dose per organ) ([1]; 1 hour after administration): 3.62 ± 0.84 percent administered dose per | P/L (percent dose in pancreas / percent dose in liver) ([1]; 4 hours after administration): 2.12 ± 0.35 | Pancreas uptake (mean percent administered dose per organ) ([1]; 4 hours after administration): 5.35 ± 0.88 percent administered dose per | P/L (percent dose in pancreas / percent dose in liver) ([1]; 24 hours after administration): 6.70 ± 1.42 | Pancreas uptake (mean percent administered dose per organ) ([1]; 24 hours after administration): 5.59 ± 0.60 percent administered dose per | pancreas/liver ratios compared with HIPDM [1]: significantly higher | pancreas uptake compared with HIPDM ([1]; early time periods): lower

Cc1cc([125I])cc(CN(C)CCCN2CCCC2)c1O [ERC 46, N[3(1-Pyrrolidino)propyl]-N-methyl-2-hydroxy-3-methyl-5-iodobenzylamine]
pancreas uptake compared with HIPDM [1, 7]: higher pancreas uptake than did HIPDM | P/L (percent dose in pancreas / percent dose in liver) ([1]; 5 minutes after administration): 0.22 ± 0.04 | Pancreas uptake (mean percent administered dose per organ) ([1]; 5 minutes after administration): 1.34 ± 0.32 percent administered dose per | P/L (percent dose in pancreas / percent dose in liver) [1, 8]: 0.54 ± 0.09 | Pancreas uptake (mean percent administered dose per organ) [1, 8]: 4.14 ± 0.68 percent administered dose per | P/L (percent dose in pancreas / percent dose in liver) ([1]; 1 hour after administration): 0.78 ± 0.20 | Pancreas uptake (mean percent administered dose per organ) ([1]; 1 hour after administration): 3.74 ± 0.69 percent administered dose per | P/L (percent dose in pancreas / percent dose in liver) ([1]; 4 hours after administration): 2.11 ± 0.32 | Pancreas uptake (mean percent administered dose per organ) ([1]; 4 hours after administration): 5.95 ± 0.78 percent administered dose per | P/L (percent dose in pancreas / percent dose in liver) ([1]; 24 hours after administration): 7.47 ± 1.40 | Pancreas uptake (mean percent administered dose per organ) ([1]; 24 hours after administration): 4.91 ± 0.43 percent administered dose per | pancreas/liver ratios compared with HIPDM [1]: significantly higher | pancreas uptake compared with HIPDM ([1]; early time periods): lower

Cc1cc([125I])cc(CN(C)CCCN(C)C)c1O [HIPDM, N,N,N'-trimethyl-N'[2-hydroxy-3-methyl-5-iodobenzyl]-1,3-propanediamine, reference compound]
localisation in the pancreas [2]: some localisation of HIPDM in the pancreas | P/L (percent dose in pancreas / percent dose in liver) ([1]; 5 minutes after administration): 0.21 ± 0.03 | P/L (percent dose in pancreas / percent dose in liver) [1, 8]: 0.32 ± 0.04 | P/L (percent dose in pancreas / percent dose in liver) ([1]; 1 hour after administration): 0.46 ± 0.06 | P/L (percent dose in pancreas / percent dose in liver) ([1]; 4 hours after administration): 0.95 ± 0.14 | P/L (percent dose in pancreas / percent dose in liver) ([1]; 24 hours after administration): 1.18 ± 0.47 | differentiation between pancreatic and liver retention [3, 9]: difficult | pancreas/liver ratios [3, 9]: not optimal for clinical use | suitability for clinical use ([3]; human): unsatisfactory for clinical use

C[75Se]CCC(N)C(=O)O (stereo not shown) [Se-75 selenomethionine]
pancreatic visualisation ([4]; in vivo): inconsistency of pancreatic visualisation | patient radiation dose ([4]; selenium-75): high patient radiation dose

Cc1cc([125I])cc(CN(C)CCCN2CCOCC2)c1O [ERC 9, N[3(4-morpholino)propyl]-N-methyl-2-hydroxy-3-methyl-5-iodobenzylamine]
visualization of the pancreas ([5]; 24 hours after injection): less than optimal although still present | quality of pancreatic images ([5]; FIGS. 2 and 3, human volunteers): High quality pancreatic images | time at which uptake of the radiotracer was seen [5, 10]: ≤ 30 min | time of optimum pancreatic uptake and pancreas/liver ratio [5, 10]: 3 to 4 h | accumulation of radiolabel in pancreas [5, 11]: high degree of accumulation of radiolabel in normal human pancreas | discrimination of pancreas from other abdominal organs [5, 11]: good discrimination of pancreas from other abdominal organs | P/L (percent dose in pancreas / percent dose in liver) ([1]; 5 minutes after administration): 0.40 ± 0.10 | Pancreas uptake (mean percent administered dose per organ) ([1]; 5 minutes after administration): 2.08 ± 0.90 percent administered dose per organ | P/L (percent dose in pancreas / percent dose in liver) [1, 8]: 0.61 ± 0.05 | Pancreas uptake (mean percent administered dose per organ) [1, 8]: 4.52 ± 0.75 percent administered dose per organ | P/L (percent dose in pancreas / percent dose in liver) ([1]; 1 hour after administration): 0.66 ± 0.14 | Pancreas uptake (mean percent administered dose per organ) ([1]; 1 hour after administration): 4.79 ± 0.70 percent administered dose per organ | P/L (percent dose in pancreas / percent dose in liver) ([1]; 4 hours after administration): 2.02 ± 0.67 | Pancreas uptake (mean percent administered dose per organ) ([1]; 4 hours after administration): 6.60 ± 1.84 percent administered dose per organ | P/L (percent dose in pancreas / percent dose in liver) ([1]; 24 hours after administration): 2.54 ± 0.34 | Pancreas uptake (mean percent administered dose per organ) ([1]; 24 hours after administration): 3.30 ± 0.53 percent administered dose per organ | mean pancreas/liver ratio compared with HIPDM ([1]; at all time intervals): greater than that for HIPDM | human radiation dose to the pancreas [6]: approximately 15.5 mGy per 111 MBq | histological examination of various organs and tissues (Toxicity in mice; [12]): no changes that could be attributed to chemical toxicity | immediate or delayed toxicity (Toxicity in mice; [12]): no indication of immediate or delayed toxicity | chemical toxicity (Toxicity in mice; animal studies): low chemical toxicity

CCN(CC)CCCN(C)Cc1cc([125I])cc(C)c1O [ERC 94, N[3(diethylamino)propyl]-N-methyl-2-hydroxy-3-methyl-5-iodobenzylamine]
P/L (percent dose in pancreas / percent dose in liver) ([1]; 5 minutes after administration): 0.22 ± 0.04 | Pancreas uptake (mean percent administered dose per organ) ([1]; 5 minutes after administration): 1.56 ± 0.26 percent administered dose per | P/L (percent dose in pancreas / percent dose in liver) [1, 8]: 0.61 ± 0.06 | Pancreas uptake (mean percent administered dose per organ) [1, 8]: 2.86 ± 0.48 percent administered dose per | P/L (percent dose in pancreas / percent dose in liver) ([1]; 1 hour after administration): 0.67 ± 0.19 | Pancreas uptake (mean percent administered dose per organ) ([1]; 1 hour after administration): 3.45 ± 0.90 percent administered dose per | P/L (percent dose in pancreas / percent dose in liver) ([1]; 4 hours after administration): 1.61 ± 0.26 | Pancreas uptake (mean percent administered dose per organ) ([1]; 4 hours after administration): 4.65 ± 0.67 percent administered dose per | P/L (percent dose in pancreas / percent dose in liver) ([1]; 24 hours after administration): 4.03 ± 1.76 | Pancreas uptake (mean percent administered dose per organ) ([1]; 24 hours after administration): 3.76 ± 1.62 percent administered dose per | pancreas/liver ratios compared with HIPDM [1]: significantly higher | pancreas uptakes compared with HIPDM ([1]; all time periods studied except 24 hours): lower than those of HIPDM
